Results on two compounds are retold here after patent US8278072B1, “Method for synthesis of sialylated products using reversible sialylation” (Health Research, Inc., priority 2007, dated 2012).

The term inhibition denotes the change of the read-out against control, counted positive when it falls.

Counter-ions that a name gives are not always drawn. Like-named read-outs stand apart in the source and are kept apart here.

Holding throughout (assay type): biochemical
Test [1] concerns the target T1, ST3Gal-II (Rattus norvegicus, UniProt Q11205).
T1 construct: purchased Calbiochem
T1 sequence (Q11205 1-350): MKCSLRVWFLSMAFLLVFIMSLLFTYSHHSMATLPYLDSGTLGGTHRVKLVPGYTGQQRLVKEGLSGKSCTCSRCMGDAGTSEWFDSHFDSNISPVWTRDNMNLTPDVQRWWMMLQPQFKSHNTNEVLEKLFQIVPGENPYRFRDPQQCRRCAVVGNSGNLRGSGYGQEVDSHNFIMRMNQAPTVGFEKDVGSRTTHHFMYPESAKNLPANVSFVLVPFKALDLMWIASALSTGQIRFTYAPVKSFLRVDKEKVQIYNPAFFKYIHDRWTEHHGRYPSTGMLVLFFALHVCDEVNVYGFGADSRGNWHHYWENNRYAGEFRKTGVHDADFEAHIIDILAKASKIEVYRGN
Nature of the test: CMP-NeuAc / UMP-NeuAc formed by reverse sialylation as sialyl donor, ST3Gal-II activity. The following applies: acceptor 2.5 mM D-Fucβ1,3GalNAcα-O-Bn; donor [3] 0.0625 mM, 8 mM 5′-CMP or 5′-UMP, 4 h, blank subtracted.

For the next test, the target named is T2, ST3Gal-III (Rattus norvegicus, UniProt Q02734).
T2 construct: purchased Calbiochem
T2 sequence (Q02734 1-374): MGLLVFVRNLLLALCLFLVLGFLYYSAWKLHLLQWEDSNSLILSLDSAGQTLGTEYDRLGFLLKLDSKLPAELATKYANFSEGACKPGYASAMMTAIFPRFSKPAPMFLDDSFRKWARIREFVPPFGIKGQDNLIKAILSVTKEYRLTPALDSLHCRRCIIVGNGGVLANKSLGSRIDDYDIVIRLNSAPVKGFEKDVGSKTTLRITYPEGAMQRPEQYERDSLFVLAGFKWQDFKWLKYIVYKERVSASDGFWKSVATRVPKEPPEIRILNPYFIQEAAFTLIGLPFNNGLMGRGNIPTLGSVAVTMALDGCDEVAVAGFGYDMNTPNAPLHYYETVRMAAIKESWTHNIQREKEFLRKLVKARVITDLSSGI
Nature of the test: CMP-NeuAc / UMP-NeuAc formed by reverse sialylation as sialyl donor, ST3Gal-III activity. Conditions: acceptor 2.5 mM 4-O-MeGalβ1,4GlcNAcβ-O-Bn; donor [3] 0.0625 mM, 8 mM 5′-CMP or 5′-UMP, ST3Gal-II plus ST3Gal-III, 4 h.

The next test concerns the target T3, ST6Gal-I (Rattus norvegicus, UniProt P13721).
T3 construct: purchased Calbiochem
T3 sequence (P13721 1-403): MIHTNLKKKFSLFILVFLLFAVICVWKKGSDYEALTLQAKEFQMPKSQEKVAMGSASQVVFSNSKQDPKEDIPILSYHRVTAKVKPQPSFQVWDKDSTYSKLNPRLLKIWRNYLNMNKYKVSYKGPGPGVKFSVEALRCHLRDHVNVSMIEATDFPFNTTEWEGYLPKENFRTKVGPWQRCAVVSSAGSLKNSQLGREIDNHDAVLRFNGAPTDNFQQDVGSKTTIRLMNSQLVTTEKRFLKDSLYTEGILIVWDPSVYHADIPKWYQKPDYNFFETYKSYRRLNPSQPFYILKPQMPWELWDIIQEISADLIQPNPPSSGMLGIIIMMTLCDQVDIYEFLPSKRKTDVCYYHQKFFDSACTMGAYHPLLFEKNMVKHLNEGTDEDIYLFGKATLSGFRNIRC
As to the kind of experiment: CMP-NeuAc / UMP-NeuAc formed by reverse sialylation as sialyl donor, ST6Gal-I activity. The following applies: acceptor 2.5 mM Galβ1,4GlcNAcβ-O-Bn; donor [3] 0.0625 mM, 8 mM 5′-CMP or 5′-UMP, ST3Gal-II plus ST6GalI, 4 h.

In another test the target is T4, ST3Gal I (Cloned Human) (Homo sapiens, UniProt Q11201).
T4 sequence (Q11201 1-340): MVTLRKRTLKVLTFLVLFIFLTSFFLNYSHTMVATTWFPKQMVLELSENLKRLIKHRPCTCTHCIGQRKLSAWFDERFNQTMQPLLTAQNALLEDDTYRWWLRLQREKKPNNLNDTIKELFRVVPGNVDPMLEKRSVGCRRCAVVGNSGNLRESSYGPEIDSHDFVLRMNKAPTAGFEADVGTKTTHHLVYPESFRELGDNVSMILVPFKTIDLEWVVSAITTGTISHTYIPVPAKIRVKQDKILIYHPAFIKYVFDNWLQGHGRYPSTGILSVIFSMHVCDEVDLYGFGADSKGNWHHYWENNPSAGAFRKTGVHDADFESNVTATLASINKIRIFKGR
As to the kind of experiment: Forward (direct) sialyltransferase activity, ST3Gal I. The method, then:
(§1) Besides pH other distinctions were also observed between forward and reverse sialylation. In this regard, citrate ions tended to inhibit forward sialylation but not reverse sialylation activity (Table V). For these studies, the effect of citrate on the forward sialylation activity of ST3Gal-I, ST3Gal-II, ST3Gal-III and ST6Gal-I was examined. Reverse sialylation activity of ST3Gal-II was also measured in terms of: i) the formation of CMP-NeuAc from 5′-CMP; and ii) the transfer of NeuAc from this newly synthesized CMP-NeuAc to another O-glycan. From the data (Table V), it is evident that citrate inhibits the direct sialylation activity of all the enzymes mentioned above. However, both the synthesis of CMP-[9-^3H]NeuAc from 5′-CMP as well as the synthesis of [9-^3H]NeuAcα2,3D-Fucβ1,3 GalNAcα-O-Bn using the newly formed CMP-[9-^3H]NeuAc through reverse sialylation of ST3Gal-II was not inhibited by citrate.

The target of test [2] is T5, ST3Gal II (Cloned rat liver) (Rattus norvegicus, UniProt Q11205).
T5 construct: purchased Calbiochem
T5 sequence (Q11205 1-350): T1 sequence (Q11205 1-350)
Nature of the test: Forward (direct) sialyltransferase activity, ST3Gal-II. The protocol: (§2) FIG. 5. Effect of 5′-nucleotides on direct sialyltransferase activity (panel a) and reverse sialylation (panel b). a. Varying concentrations of 5′-CDP or 5′-CMP were added to 100 mM acceptor (specified below), 0.15 mM CMP-[9-^3H]NeuAc and either ST3Gal-II (0.2 mU), ST3Gal-III (0.5 mU) or ST6Gal-I (0.2 mU) for 4 h at 37° C. Products were separated using Sep-Pak C18 method. ST3Gal-III activity was measured using acceptor 4-O-MeGalβ1,4GlcNAcβ-O-Bn in the presence of 5′-CDP (●) and 5′-CMP (◯). ST6Gal-I activity was measured using Gal β1,4GlcNAcβ-O-Bn in the presence of 5′-CDP (▴) and 5′-CMP (Δ). ST3Gal-II using D-Fucβ1,3GalNAcα-O-Bn in the presence of 5′-CDP (▪) and 5′-CMP (□). b) Reverse sialylation by ST3Gal-II was measured in reaction mixtures containing 0.2 mM [9-^3H] [3], 7 mM 5′-CMP, ST3Gal-II (2 mU), D-Fucβ1,3GalNAcα-OBn (3.0 mM) and varying doses of either 5′-CDP (▴), 5′-UMP (◯) or 2-deoxy 5′-CMP (●) for 4 hours at 37° C. Reaction product ([9-^3H]NeuAcα2,3DFucβ1,3 GalNAcα-O-Bn) was isolated using Sep-Pak C18 method. In some runs, where was absent, the amount of CMP-NeuAc produced was quantified using the Dowex-1 Formate method in the presence of varying doses of 5′-CDP (▪).
as §1
(§3) The effect of 5′-nucleotides on forward sialylation (FIG. 5a) and reverse sialylation (FIG. 5b) were examined. […] The overall formation of [9-^3H]NeuAcα2,3D-Fucβ1,3 GalNAcα-O-Bn by the two-step reverse sialylation process, however, was inhibited by 5′-CDP and this is consistent with the finding that 5′-CDP inhibits forward sialylation in the second step.

The target in test [3] is T6, ST3Gal III (Cloned rat liver) (Rattus norvegicus, UniProt Q02734).
T6 construct: purchased Calbiochem
T6 sequence (Q02734 1-374): T2 sequence (Q02734 1-374)
As to the kind of experiment: Forward (direct) sialyltransferase activity, ST3Gal-III. The protocol:
as §2, §1, §3

For test [4], the target named is T7, ST6Gal I (Cloned rat liver) (Rattus norvegicus, UniProt P13721).
T7 construct: purchased Calbiochem
T7 sequence (P13721 1-403): T3 sequence (P13721 1-403)
As to the kind of experiment: Forward (direct) sialyltransferase activity, ST6Gal-I. The protocol: as §2, §1, §3

Test [5] deals with T1, ST3Gal-II. As to the kind of experiment: Reverse sialylation by ST3Gal-II in presence of citrate or 5′-nucleotides. Conditions: for inhibition at 40000 µM: 40 mM citrate, donor [3]. The method, then:
as §2, §1, §3

Setting [6] is: acceptor Galβ1,3GalNAcβ-O-Al 1.0 mM, 0.15 mM CMP-[9-3H]NeuAc, 4 hours.

As to `CC(=O)NC1C(O)CC(OP(=O)(O)OCC2OC(n3ccc(=O)[nH]c3=O)C(O)C2O)(C(=O)O)OC1C(O)C(O)CO` (stereo not drawn) [UMP-NeuAc], the “Incorporation of [9-3H]NeuAc into the acceptor, ST3Gal-II activity” value on ST3Gal-II [1] came to 1243 CPM. Also, the “Incorporation of [9-3H]NeuAc into the acceptor, ST3Gal-III activity” value on ST3Gal-III was 3804 CPM. Further, the “Incorporation of [9-3H]NeuAc into the acceptor, ST6Gal-I activity” value at ST6Gal-I was 182 CPM.
Turning to `O=C(O)CC(O)(CC(=O)O)C(=O)O` [citrate, sodium citrate], the inhibition at 40000 µM at ST3Gal I (Cloned Human) was determined as 98.3%; in test [2] (40 mM citrate, acceptor Galβ1,3GalNAcβ-O-Al), 48.2%; in test [3] (40 mM citrate, acceptor 4-O-MeGalβ1,4GlcNAcβ-O-Bn), 64.3%; in test [4] (40 mM citrate, acceptor Galβ1,4GlcNAcβ-O-Bn) it was 92.4%; at ST3Gal-II [5] (read-out: Inhibition of synthesis of CMP-[9-3H]NeuAc from 5′-CMP) it was 0%; on ST3Gal-II [5] (read-out: Inhibition of synthesis of [9-3H]NeuAcα2,3D-Fucβ1,3GalNAcα-OBn through 5′-CMP), 0%. Besides, the “Activity (Incorporation of [9-3H]NeuAc) with citrate (40 mM)” value on ST3Gal I (Cloned Human) (setting [6]) worked out at 402 CPM; in test [2] (setting [6]), 33025 CPM; in test [3] (acceptor 4-O-MeGalβ1,4GlcNAcβ-O-Bn 1.0 mM, 0.15 mM CMP-[9-3H]NeuAc, 4 hours), 39115 CPM; in test [4] (acceptor Galβ1,4GlcNAcβ-O-Bn 1.0 mM, 0.15 mM CMP-[9-3H]NeuAc, 4 hours), 7471 CPM. Also, on ST3Gal-II [5] (donor […] [3], 20 mM 5′-CMP, 3.0 mM D-Fucβ1,3GalNAcα-OBn, 4 hours), the “Activity (Incorporation of [9-3H]NeuAc) with citrate (40 mM): synthesis of [9-3H]NeuAcα2,3D-Fucβ1,3GalNAcα-OBn through 5′-CMP” value is on record as 59131 CPM. Besides, the “Activity (Incorporation of [9-3H]NeuAc) with citrate (40 mM): synthesis of CMP-[9-3H]NeuAc from 5′-CMP” value on ST3Gal-II [5] (donor […] [3], 20 mM 5′-CMP, 5.0 mU ST3Gal-II, 4 hours) came out at 48800 CPM.
